Data reported in US8022102B2, “Unsaturated tetracyclic tetrahydrofuran derivatives” (Janssen Pharmaceutica, NV, priority 2004, dated 2011).
Read-outs that look alike come from different tables or passages of the source.

Experiments:
NET = target: T1, NET (Rattus norvegicus, UniProt Q9WTR4); assay: In vitro determination of NET reuptake inhibition ([3H]Nixosetine binding, rat brain cortex)
T1 construct: Cortex from rat brain was collected and homogenised; from tissue; host or cells: rat brain cortex
Experimental: Cortex from rat brain was collected and homogenised using an Ultra-Turrax T25 and a Dual homogeniser in ice-cold homogenising buffer containing Tris, NaCl and KCl (50 mM, 120 mM and 5 mM, respectively, pH 7.4) prior to dilution to an appropriate protein concentration optimised for specific and non-specific binding. […] Membrane-bound activity was detected by filtration through a Packard Filtermate harvester onto GF/B Unifilterplates, washed with ice-cold Tris-HCl buffer, containing NaCl and KCl (50 mM, 120 mM and 4 mM; pH 7.4; 6×0.5 ml). Filters were allowed to dry for 24 h before adding scintillation fluid. Scintillation fluid was allowed to saturate filters for 24 h before counting in a Topcount scintillation counter. Percentage specific bound and competition binding curves were calculated using S-Plus software (Insightful).

[1] = target: T2, human cloned 5-HT2C receptor (Homo sapiens, UniProt P28335); assay: In vitro binding affinity for 5-HT2C receptor (radioligand binding)
T2 construct: expressed in transfected cells; host or cells: CHO cells
T2 sequence (P28335 33-458): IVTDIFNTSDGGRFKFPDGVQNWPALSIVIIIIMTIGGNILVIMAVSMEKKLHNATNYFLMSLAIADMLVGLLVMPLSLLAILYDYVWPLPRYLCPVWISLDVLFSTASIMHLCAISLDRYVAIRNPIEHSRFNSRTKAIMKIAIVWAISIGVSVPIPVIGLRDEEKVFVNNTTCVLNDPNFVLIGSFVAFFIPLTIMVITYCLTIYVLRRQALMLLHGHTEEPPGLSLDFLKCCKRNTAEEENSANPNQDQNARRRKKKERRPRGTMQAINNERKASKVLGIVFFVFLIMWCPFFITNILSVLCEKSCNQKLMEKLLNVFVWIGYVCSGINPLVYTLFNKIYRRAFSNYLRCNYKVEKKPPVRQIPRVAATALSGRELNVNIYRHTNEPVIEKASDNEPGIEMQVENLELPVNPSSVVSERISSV
Experimental: (§1) During the incubation, the radioligands bind to the receptor. When equilibrium of binding is reached, the receptor bound radioactivity is separated from the non-bound radioactivity, and the receptor bound activity is counted. The interaction of the test compounds with the receptors is assessed in competition binding experiments. Various concentrations of the test compound are added to the incubation mixture containing the tissue preparation and the radioligand. Binding of the radioligand will be inhibited by the test compound in proportion to its binding affinity and its concentration.

[2] = target: T3, human Dopamine D2L receptor (Homo sapiens, UniProt P14416); assay: In vitro binding affinity for human D2L receptor ([3H]Spiperone)
T3 construct: expressed in transfected cells; host or cells: CHO cells
Experimental: Frozen membranes of human Dopamine D2L receptor-transfected CHO cells were thawed, briefly homogenised using an Ultra-Turrax T25 homogeniser and diluted in Tris-HCl assay buffer containing NaCl, CaCl2, MgCl2, KCl (50, 120, 2, 1, and 5 mM respectively, adjusted to pH 7.7 with HCl) to an appropriate protein concentration optimised for specific and non-specific binding. Radioligand [^3H]Spiperone (NEN, specific activity ˜70 Ci/mmol) was diluted in assay buffer at a concentration of 2 nmol/L. Prepared radioligand (50 μl), along with 50 μl of either the 10% DMSO control, Butaclamol (10^−6 mol/l final concentration), or compound of interest, was then incubated (30 min, 37° C.) with 400 μl of the prepared membrane solution. Membrane-bound activity was filtered through a Packard Filtermate harvester onto GF/B Unifilterplates and washed with ice-cold Tris-HCl buffer (50 mM; pH 7.7; 6×0.5 ml). Filters were allowed to dry before adding scintillation fluid and counting in a Topcount scintillation counter. Percentage specific bound and competition binding curves were calculated using S-Plus software (Insightful).

[3] = target: T4, human cloned 5-HT2A receptor (Homo sapiens, UniProt P28223); assay: In vitro binding affinity for 5-HT2A receptor (radioligand binding)
T4 construct: expressed in transfected cells; host or cells: L929 cells
Experimental: as §1, with “concentration. The affinities of the compounds for the 5-HT2 receptors were measured by means of radioligand binding studies conducted with: (a) human cloned 5-HT2A receptor, expressed in L929 cells using [^125I]R91150 as radioligand and (b) human cloned 5-HT2C receptor, expressed in CHO cells using [^3H]mesulergine as radioligand.” for “concentration.”

[4] = rat brain cortex, [3H]Nixosetine, read-out: NET Reuptake Inhibition (converted)
[5] = human cloned 5-HT2C receptor, radioligand binding, read-out: h-5HT2C (converted)
[6] = human D2L receptor-transfected CHO cell membranes, [3H]Spiperone, read-out: h-D2L (converted)
[7] = human cloned 5-HT2A receptor, radioligand binding, read-out: h-5HT2A (converted)
[8] = NET Reuptake Inhibition, rat brain cortex, [3H]Nixosetine
[9] = h-5HT2C, human cloned 5-HT2C receptor, radioligand binding
[10] = h-D2L, human D2L receptor-transfected CHO cell membranes, [3H]Spiperone
[11] = h-5HT2A, human cloned 5-HT2A receptor, radioligand binding

T3 sequence (P14416 whole entry): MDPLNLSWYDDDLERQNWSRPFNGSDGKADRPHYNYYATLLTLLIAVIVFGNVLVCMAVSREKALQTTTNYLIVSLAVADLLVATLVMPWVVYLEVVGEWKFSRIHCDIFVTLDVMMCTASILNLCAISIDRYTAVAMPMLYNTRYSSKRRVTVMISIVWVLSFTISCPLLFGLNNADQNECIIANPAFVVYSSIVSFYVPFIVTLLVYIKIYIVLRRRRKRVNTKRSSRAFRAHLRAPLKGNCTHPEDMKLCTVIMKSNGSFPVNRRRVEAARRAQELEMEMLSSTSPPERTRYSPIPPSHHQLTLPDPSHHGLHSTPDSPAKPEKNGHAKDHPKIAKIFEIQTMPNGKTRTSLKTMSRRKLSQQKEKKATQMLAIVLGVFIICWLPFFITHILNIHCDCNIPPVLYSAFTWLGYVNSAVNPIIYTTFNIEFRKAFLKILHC
T1 sequence (Q9WTR4 1-597): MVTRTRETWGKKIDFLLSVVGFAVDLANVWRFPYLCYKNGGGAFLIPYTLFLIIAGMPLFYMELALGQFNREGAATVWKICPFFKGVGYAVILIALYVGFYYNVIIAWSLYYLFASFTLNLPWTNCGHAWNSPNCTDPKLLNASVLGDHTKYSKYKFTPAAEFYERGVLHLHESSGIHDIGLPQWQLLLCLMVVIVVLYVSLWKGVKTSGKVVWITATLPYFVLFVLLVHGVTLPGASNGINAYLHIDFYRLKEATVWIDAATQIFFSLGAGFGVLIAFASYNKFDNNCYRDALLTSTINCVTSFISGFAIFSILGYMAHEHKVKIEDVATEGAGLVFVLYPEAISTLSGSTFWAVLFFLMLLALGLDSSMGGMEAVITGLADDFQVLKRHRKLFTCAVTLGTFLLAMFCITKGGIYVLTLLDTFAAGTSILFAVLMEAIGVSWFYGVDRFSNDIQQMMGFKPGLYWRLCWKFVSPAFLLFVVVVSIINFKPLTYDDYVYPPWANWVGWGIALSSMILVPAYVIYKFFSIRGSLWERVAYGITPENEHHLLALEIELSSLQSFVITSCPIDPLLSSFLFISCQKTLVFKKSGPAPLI
T4 sequence (P28223 whole entry): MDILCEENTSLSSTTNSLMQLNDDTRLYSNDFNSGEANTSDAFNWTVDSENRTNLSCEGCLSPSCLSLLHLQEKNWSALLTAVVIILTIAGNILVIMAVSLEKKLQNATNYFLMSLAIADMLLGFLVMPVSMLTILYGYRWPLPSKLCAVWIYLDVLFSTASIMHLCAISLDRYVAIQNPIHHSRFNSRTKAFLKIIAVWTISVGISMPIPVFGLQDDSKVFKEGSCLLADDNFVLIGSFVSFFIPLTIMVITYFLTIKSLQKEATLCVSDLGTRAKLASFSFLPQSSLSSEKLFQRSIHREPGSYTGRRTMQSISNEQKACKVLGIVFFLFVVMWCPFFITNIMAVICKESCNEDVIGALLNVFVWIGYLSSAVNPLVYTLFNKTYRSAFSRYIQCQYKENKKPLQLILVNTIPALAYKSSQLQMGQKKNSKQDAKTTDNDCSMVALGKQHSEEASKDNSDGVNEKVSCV

| SMILES | IC50 (NET; [4]) [nM] | IC50 [1, 5] [nM] | IC50 [2, 6] [nM] | IC50 [3, 7] [nM] | further results |
| --- | --- | --- | --- | --- | --- |
| CCS(=O)(=O)N(C)CC1CC2=C(O1)c1cc(F)ccc1Cc1ccccc12 (stereo not shown) [Compound 127] | > 10000 | 10 | > 10000 | 200 | – |
| CN(C)CC1CC2=C(O1)c1ccccc1N(C)c1ccccc12 (stereo not shown) [Compound 29] | 79.4 | 126 | 6310 | 316 | – |
| COc1ccc(OC(=O)N2CCN(CC3CC4=C(O3)c3cc(F)ccc3Cc3ccccc34)CC2)cc1 (stereo not shown) [Compound 67] | – | – | – | – | IC50 (NET; [8]): 3160 nM; IC50 [1, 9]: 50.1 nM; IC50 [2, 10]: 398 nM; IC50 [3, 11]: 20 nM |
| O=C(OCc1ccccc1)N1CCN(CC2CC3=C(O2)c2cc(F)ccc2Cc2ccccc23)CC1 (stereo not shown) [Compound 69] | 7940 | 1000 | 1260 | 501 | – |
| O=C(Oc1ccccc1)N1CCN(CC2CC3=C(O2)c2cc(F)ccc2Cc2ccccc23)CC1 (stereo not shown) [Compound 65] | – | – | – | – | IC50 (NET; [8]): 3160 nM; IC50 [1, 9]: 126 nM; IC50 [2, 10]: 1000 nM; IC50 [3, 11]: 50.1 nM |
| O=C(NCc1ccccc1)N1CCN(CC2CC3=C(O2)c2cc(F)ccc2Cc2ccccc23)CC1 (stereo not shown) [Compound 87] | 7940 | 100 | 794 | 631 | – |
| O=C(NCc1ccccc1)N1CCN(CC2CC3=C(O2)c2cc(F)ccc2Oc2ccccc23)CC1 (stereo not shown) [Compound 88] | 1580 | 100 | 1260 | 158 | – |
| CCS(=O)(=O)N1CCN(CC2CC3=C(O2)c2cc(F)ccc2Oc2ccccc23)CC1 (stereo not shown) [Compound 47] | 398 | 200 | 1260 | 158 | – |
| CC(C)OC(=O)N1CCN(CC2CC3=C(O2)c2cc(F)ccc2Cc2ccccc23)CC1 (stereo not shown) [Compound 63] | > 10000 | 501 | 3980 | 251 | – |
| CS(=O)(=O)N1CCN(CC2CC3=C(O2)c2cc(F)ccc2Cc2ccccc23)CC1 (stereo not shown) [Compound 44] | > 10000 | 50.1 | 158 | – | – |
| CN(C/C=C/c1ccccc1)C[C@H]1CC2=C(O1)c1cc(F)ccc1Cc1ccccc12 [Compound 110] | – | – | – | – | IC50 (NET; NET Reuptake Inhibition): 1000 nM; IC50 ([1]; h-5HT2C): 5.01 nM; IC50 ([2]; h-D2L): 158 nM; IC50 ([3]; h-5HT2A): 12.6 nM |
| CN(C)CCC1CC2=C(O1)c1cc(F)ccc1Cc1ccccc12 (stereo not shown) [Compound 137] | 158 | 3.16 | 1580 | 12.6 | – |
| CCS(=O)(=O)N1CCN(CC2CC3=C(O2)c2cc(F)ccc2Cc2ccccc23)CC1 (stereo not shown) [Compound 46] | > 10000 | 200 | 501 | – | – |
| COC(=O)CC(=O)N(C)C[C@H]1CC2=C(O1)c1cc(F)ccc1Cc1ccccc12 [Compound 112] | 7940 | 63.1 | – | 200 | – |
| CCCn1c2c(c3ccccc31)C1=C(CC(CNC)O1)c1ccccc1S2 (stereo not shown) [Compound 93] | 100 | 10 | 398 | 25.1 | – |
| CCCn1c2c(c3ccccc31)C1=C(CC(CN(C)C)O1)c1ccccc1S2 (stereo not shown) [Compound 94] | 1260 | 39.8 | 1000 | 126 | – |
| C=CCn1c2c(c3ccccc31)C1=C(CC(CNC)O1)c1ccccc1S2 (stereo not shown) [Compound 95] | 158 | 6.31 | 398 | 7.94 | – |

More lines, main results first:

| IC50 (NET; [4]) [nM] | IC50 [1, 5] [nM] | IC50 [2, 6] [nM] | IC50 [3, 7] [nM] | SMILES | further results |
| --- | --- | --- | --- | --- | --- |
| 398 | 12.6 | 3160 | 15.8 | CN(C/C=C/C(=O)O)C[C@H]1CC2=C(O1)c1cc(F)ccc1Cc1ccccc12 [Compound 109] | – |
| 10 | 0.631 | 63.1 | 0.501 | CNC[C@@H]1CC2=C(O1)c1cc(F)ccc1Cc1ccccc12 [Compound 4] | IC50 ([1]; human cloned 5-HT2C receptor expressed in CHO cells, [3H]mesulergine, read-out: h-5HT2C (converted)): 0.631 nM; IC50 ([3]; human cloned 5-HT2A receptor expressed in L929 cells, [125I]R91150, read-out: h-5HT2A (converted)): 0.501 nM |
| 79.4 | 50.1 | 3980 | 100 | CNC[C@@H]1CC2=C(O1)c1ccccc1[C@@H](C)c1ccccc12 (racemic) [Compound 9] | – |
| 39.8 | 7.94 | 200 | 12.6 | CNCC1CC2=C(O1)c1cc(F)ccc1Oc1ccccc12 (stereo not shown) [Compound 12] | – |
| 5010 | 15.8 | 126 | 6.31 | O=C(c1ccccc1)N1CCN(CC2CC3=C(O2)c2cc(F)ccc2Cc2ccccc23)CC1 (stereo not shown) [Compound 71] | – |
| 2510 | 7.94 | 3160 | 10 | CNC(=O)CN(C)C[C@H]1CC2=C(O1)c1cc(F)ccc1Cc1ccccc12 [Compound 116] | – |
| 316 | – | 2040 | 25.1 | CNCC1CC2=C(O1)c1ccccc1Cc1ccc(C#N)cc12 (stereo not shown) [Compound 133] | – |
| 25.1 | 20 | 1580 | 39.8 | C=C1c2ccccc2C2=C(OC(CNC)C2)c2ccccc21 (stereo not shown) [Compound 11] | – |
| 3.16 | 0.794 | 39.8 | – | CCNCC1CC2=C(O1)c1cc(F)ccc1Cc1ccccc12 (single isomer, unassigned) [Compound 15] | – |
| 251 | 0.794 | 15.8 | – | CN(C)CC1CC2=C(O1)c1cc(Br)ccc1Cc1ccccc12 (stereo not shown) [Compound 21] | – |
| 1580 | 20 | 79.4 | – | Fc1ccc2c(c1)C1=C(CC(CN3CCOCC3)O1)c1ccccc1C2 (stereo not shown) [Compound 43] | – |
| 15.8 | 6.31 | 398 | 6.31 | CNC[C@H]1CC2=C(O1)c1cc(F)ccc1Cc1ccccc12 [Compound 3] | – |
| 100 | 2 | 1580 | 25.1 | CNCC1CC2=C(O1)c1c(F)cccc1Cc1ccccc12 (stereo not shown) [Compound 136] | – |
| 6310 | 63.1 | 398 | 25.1 | O=C(c1ccccc1)N1CCN(CC2CC3=C(O2)c2cc(F)ccc2Oc2ccccc23)CC1 (stereo not shown) [Compound 72] | – |
| 3980 | 10 | 1580 | 15.8 | CCOC(=O)CN(C)C[C@H]1CC2=C(O1)c1cc(F)ccc1Cc1ccccc12 [Compound 113] | – |
| 631 | 2.51 | 3160 | 5.01 | CNCC1CC2=C(O1)c1ccc(F)cc1Cc1ccccc12 (stereo not shown) [Compound 135] | – |
| 1580 | 79.4 | 2000 | – | COC(=O)CC(=O)N1CCN(CC2CC3=C(O2)c2cc(F)ccc2Oc2ccccc23)CC1 (stereo not shown) [Compound 60] | – |
| 63.1 | 3.98 | – | 10 | CNCC1CC2=C(O1)c1ccccc1Cc1cccc(F)c12 (stereo not shown) [Compound 132] | – |
